#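 The compound was tested at five concentrations on cells cultured in 96-well plates, with a 48-hour exposure period. Here, GI50 denotes the concentration required for 50% inhibition of growth. TGI denotes the concentration required for complete inhibition of growth.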
# Experiments:
# Test in all cases: growth of human tumour cells (NCI), 48 h
# [1] = test system: HOP-92 NSCLC
# [2] = test system: 786-0 renal
# [3] = test system: HT29 colon
# [4] = test system: RPMI-8226 leukemia
# [5] = test system: KM20L2 colon
# [6] = test system: U251 CNS
# [7] = test system: OVCAR-5 ovarian
# [8] = test system: COLO 205 colon
# [9] = test system: MOLT-4 leukemia
# [10] = test system: NCI-H522 lung
# [11] = test system: SN12C renal
# [12] = test system: UO-31 renal
# [13] = test system: NCI-H226 lung
# [14] = test system: HL-60(TB) leukemia
# [15] = test system: K-562 leukemia
# [16] = test system: CCRF-CEM leukemia
# [17] = test system: DMS 273 small cell lung
# [18] = test system: HOP-62 NSCLC
# [19] = test system: A549 NSCLC
# [20] = test system: UACC-257 melanoma
# [21] = test system: SF-539 CNS
# [22] = test system: NCI-H460 lung
# [23] = test system: OVCAR-8 ovarian
# [24] = test system: LOX IMVI melanoma
# [25] = test system: HCC-2998 colon
# [26] = test system: LXFL 529 NSCLC
# [27] = test system: DLD-1 colon
# [28] = test system: SF-295 CNS
# [29] = test system: SK-MEL-2 melanoma
# [30] = test system: SNB-75 CNS
# [31] = test system: DMS 114 small cell lung
# [32] = test system: MALME-3M melanoma
# [33] = test system: SK-MEL-5 melanoma
# [34] = test system: M19-MEL melanoma
# [35] = test system: HCT-116 colon
# [36] = test system: IGROV1 ovarian
# [37] = test system: OVCAR-3 ovarian
# [38] = test system: TK-10 renal
# [39] = test system: SF-268 CNS
# [40] = test system: SW-620 colon
# [41] = test system: CAKI-1 renal
# [42] = test system: KM12 colon
# [43] = test system: UACC-62 melanoma
# [44] = test system: SNB-19 CNS
# [45] = test system: EKVX NSCLC
# [46] = test system: NCI-H23 lung
# [47] = test system: ACHN renal
# [48] = test system: HCT-15 colon
# [49] = test system: SK-OV-3 ovarian
# [50] = test system: SK-MEL-28 melanoma
# [51] = test system: M14 melanoma
# [52] = test system: OVCAR-4 ovarian
# [53] = test system: A498 renal
# [54] = test system: SNB-78 CNS
# [55] = test system: SR leukemia
# [56] = test system: RXF 393 renal
structure (smiles),measurement,setting,value
[Cl-].[Nd+3].[O-]/N=C(\c1ccccc1)c1ccccn1.[O-]/N=C(\c1ccccc1)c1ccccn1.[O-]/N=C(\c1ccccc1)c1ccccn1,GI50,[1],25 µM
same,TGI,[1],98.3 µM
same,GI50,[2],31 µM
same,TGI,[2],82.2 µM
same,GI50,[3],54.2 µM
same,TGI,[3],> 100 µM
same,GI50,[4],39.2 µM
same,TGI,[4],> 100 µM
same,GI50,[5],39.1 µM
same,TGI,[5],> 100 µM
same,GI50,[6],38.9 µM
same,TGI,[6],> 100 µM
same,GI50,[7],31.2 µM
same,TGI,[7],> 100 µM
same,GI50,[8],31.2 µM
same,TGI,[8],> 100 µM
same,GI50,[9],23.8 µM
same,TGI,[9],90.2 µM
same,GI50,[10],23 µM
same,TGI,[10],80.1 µM
same,GI50,[11],37.2 µM
same,TGI,[11],> 100 µM
same,GI50,[12],19.8 µM
same,TGI,[12],56.7 µM
same,GI50,[13],13.3 µM
same,TGI,[13],45.6 µM
same,GI50,[14],16.5 µM
same,TGI,[14],53.6 µM
same,GI50,[15],34.4 µM
same,TGI,[15],> 100 µM
same,GI50,[16],16.4 µM
same,TGI,[16],95.3 µM
same,GI50,[17],26.9 µM
same,TGI,[17],97 µM
same,GI50,[18],24.9 µM
same,TGI,[18],> 100 µM
same,GI50,[19],33.7 µM
same,TGI,[19],> 100 µM
same,GI50,[20],33.6 µM
same,TGI,[20],99.3 µM
same,GI50,[21],23.8 µM
same,TGI,[21],62.2 µM
same,GI50,[22],29.4 µM
same,TGI,[22],> 100 µM
same,GI50,[23],34.1 µM
same,TGI,[23],> 100 µM
same,GI50,[24],22.6 µM
same,TGI,[24],58 µM
same,GI50,[25],36.3 µM
same,TGI,[25],> 100 µM
same,GI50,[26],40.4 µM
same,TGI,[26],> 100 µM
same,GI50,[27],39.6 µM
same,TGI,[27],> 100 µM
same,GI50,[28],22.3 µM
same,TGI,[28],> 100 µM
same,GI50,[29],28 µM
same,TGI,[29],66.4 µM
same,GI50,[30],3.78 µM
same,TGI,[30],17.2 µM
same,GI50,[31],24.6 µM
same,TGI,[31],79 µM
same,GI50,[32],30 µM
same,TGI,[32],96.9 µM
same,GI50,[33],22.6 µM
same,TGI,[33],55.4 µM
same,GI50,[34],25 µM
same,TGI,[34],69.8 µM
same,GI50,[35],37.6 µM
same,TGI,[35],> 100 µM
same,GI50,[36],30.6 µM
same,TGI,[36],> 100 µM
same,GI50,[37],17.5 µM
same,TGI,[37],> 100 µM
same,GI50,[38],37.5 µM
same,TGI,[38],> 100 µM
same,GI50,[39],24.8 µM
same,TGI,[39],85.1 µM
same,GI50,[40],41.1 µM
same,TGI,[40],> 100 µM
same,GI50,[41],30.6 µM
same,TGI,[41],> 100 µM
same,GI50,[42],38.8 µM
same,TGI,[42],> 100 µM
same,GI50,[43],28.7 µM
same,TGI,[43],> 100 µM
same,GI50,[44],35.9 µM
same,TGI,[44],> 100 µM
same,GI50,[45],31.1 µM
same,TGI,[45],> 100 µM
same,GI50,[46],30.3 µM
same,TGI,[46],82.7 µM
same,GI50,[47],37.8 µM
same,TGI,[47],> 100 µM
same,GI50,[48],31.7 µM
same,TGI,[48],> 100 µM
same,GI50,[49],37.1 µM
same,TGI,[49],> 100 µM
same,GI50,[50],27.3 µM
same,TGI,[50],85.1 µM
same,GI50,[51],23 µM
same,TGI,[51],45.8 µM
same,GI50,[52],45.1 µM
same,TGI,[52],> 100 µM
same,GI50,[53],24.5 µM
same,TGI,[53],> 100 µM
COc1cc2ccc1NC(=O)N1CCN(CC1)C(=O)Nc1ccc(cc1OC)-c1ccc(c(OC)c1)NC(=O)N1CCN(CC1)C(=O)Nc1ccc-2cc1OC,TGI,[1],> 100 µM
same,TGI,[3],> 100 µM
same,TGI,[4],> 100 µM
same,TGI,[8],> 100 µM
same,TGI,[9],> 100 µM
same,TGI,[10],> 100 µM
same,TGI,[12],> 100 µM
same,TGI,[15],> 100 µM
same,TGI,[16],> 100 µM
same,TGI,[18],> 100 µM
same,TGI,[20],> 100 µM
same,TGI,[21],> 100 µM
same,TGI,[22],> 100 µM
same,TGI,[25],> 100 µM
same,TGI,[26],> 100 µM
same,TGI,[28],> 100 µM
same,TGI,[29],> 100 µM
same,TGI,[30],> 100 µM
same,TGI,[31],> 100 µM
same,TGI,[34],> 100 µM
same,TGI,[35],> 100 µM
same,TGI,[36],> 100 µM
same,TGI,[37],> 100 µM
same,TGI,[39],> 100 µM
same,TGI,[42],> 100 µM
same,TGI,[54],> 100 µM
same,TGI,[43],> 100 µM
same,TGI,[55],> 100 µM
same,TGI,[44],> 100 µM
same,TGI,[46],> 100 µM
same,TGI,[47],> 100 µM
same,TGI,[56],> 100 µM
same,TGI,[49],> 100 µM
same,TGI,[50],> 100 µM
same,TGI,[51],> 100 µM
same,TGI,[52],> 100 µM
same,TGI,[53],> 100 µM
